Experimental data reported in ChEMBL document CHEMBL1143819, “In vitro activities of miltefosine and two novel antifungal biscationic salts against a panel of 77 dermatophytes” (2007).
In brackets after ≈: the same amount, converted by molar mass.

Tests used:
Type in all cases: functional
Settings in all cases: 168 h
[1] = system: Trichophyton mentagrophytes; assay: Antifungal activity against Trichophyton mentagrophytes after 7 days by broth microdilution test
[2] = system: Trichophyton tonsurans; assay: Antifungal activity against Trichophyton tonsurans after 7 days by broth microdilution test
[3] = system: Trichophyton rubrum; assay: Antifungal activity against Trichophyton rubrum after 7 days by broth microdilution test
[4] = system: Trichophyton; assay: Antifungal activity against Trichophyton sp. after 7 days by broth microdilution test
[5] = system: Trichophyton violaceum; assay: Antifungal activity against Trichophyton violaceum after 7 days by broth microdilution test
[6] = Antifungal activity against Cryptococcus after 7 days by broth microdilution test
[7] = system: Nannizzia gypsea; assay: Antifungal activity against Microsporum gypseum after 7 days by broth microdilution test
[8] = system: Candida; assay: Antifungal activity against Candida after 7 days by broth microdilution test
[9] = system: Paraphyton cookei; assay: Antifungal activity against Microsporum cookei after 7 days by broth microdilution test
[10] = system: Trichophyton soudanense; assay: Antifungal activity against Trichophyton soudanense after 7 days by broth microdilution test
[11] = system: Epidermophyton floccosum; assay: Antifungal activity against Epidermophyton floccosum after 7 days by broth microdilution test
[12] = system: Microsporum; assay: Antifungal activity against Microsporum sp. after 7 days by broth microdilution test
[13] = system: Microsporum canis; assay: Antifungal activity against Microsporum canis after 7 days by broth microdilution test

Row | MIC [1] [µg/mL] | MIC50 [1] [µg/mL] | MIC90 [1] [µg/mL] | MIC [2] [µg/mL] | MIC50 [2] [µg/mL] | MIC [3] [µg/mL] | MIC50 [3] [µg/mL] | MIC90 [3] [µg/mL] | MIC [4] [µg/mL] | MIC50 [4] [µg/mL] | MIC90 [4] [µg/mL] | MIC [5] [µg/mL] | MIC [7] [µg/mL] | MIC [9] [µg/mL] | MIC [10] [µg/mL] | MIC [11] [µg/mL] | MIC [12] [µg/mL] | MIC50 [12] [µg/mL] | MIC90 [12] [µg/mL] | MIC [13] [µg/mL] | SMILES | further results
1 | 9.01 | 8 | 16 | 2.8 | 2 | 10.4 | 8 | 16 | 6.98 | 8 | 16 | 8.96 | 2.41 | 1.06 | 14.5 | 7.63 | 2.24 | 2 | 4 | 2.95 | CCCCCc1cc[n+](CCCCCCCCCCCC[n+]2ccc(CCCCC)cc2)cc1.[Cl-].[Cl-] | MIC90 [2]: 8 µg/mL; MIC [6]: 0.6 µg/mL; MIC [8]: 0.6 µg/mL
2 | 0.063 (≈ 0.198 µM) | 0.063 (≈ 0.198 µM) | 0.125 (≈ 0.394 µM) | 0.04 (≈ 0.126 µM) | 0.031 (≈ 0.0976 µM) | 0.05 (≈ 0.157 µM) | 0.063 (≈ 0.198 µM) | 0.125 (≈ 0.394 µM) | 0.074 (≈ 0.233 µM) | 0.063 (≈ 0.198 µM) | 0.125 (≈ 0.394 µM) | 0.063 (≈ 0.198 µM) | 0.084 (≈ 0.265 µM) | 0.153 (≈ 0.482 µM) | 0.059 (≈ 0.186 µM) | 0.081 (≈ 0.255 µM) | 0.106 (≈ 0.334 µM) | 0.125 (≈ 0.394 µM) | 0.125 (≈ 0.394 µM) | 0.101 (≈ 0.318 µM) | CN(Cc1ccc(C(C)(C)C)cc1)Cc1cccc2ccccc12 [BUTENAFINE] | MIC90 [2]: 0.063 µg/mL (≈ 0.198 µM)
3 | 1.68 (≈ 2.38 µM) | 2 (≈ 2.83 µM) | 4 (≈ 5.67 µM) | 1.65 (≈ 2.33 µM) | 2 (≈ 2.83 µM) | 1.96 (≈ 2.77 µM) | 2 (≈ 2.83 µM) | 4 (≈ 5.67 µM) | 1.99 (≈ 2.82 µM) | 2 (≈ 2.83 µM) | 4 (≈ 5.67 µM) | 3.3 (≈ 4.68 µM) | 3.68 (≈ 5.22 µM) | 6 (≈ 8.5 µM) | 3.42 (≈ 4.85 µM) | 0.226 (≈ 0.32 µM) | 2.63 (≈ 3.73 µM) | 4 (≈ 5.67 µM) | 8 (≈ 11.3 µM) | 1.23 (≈ 1.74 µM) | CCC(C)n1ncn(-c2ccc(N3CCN(c4ccc(OCC5COC(Cn6cncn6)(c6ccc(Cl)cc6Cl)O5)cc4)CC3)cc2)c1=O (stereo not given) [ITRACONAZOLE] | MIC90 [2]: 4 µg/mL (≈ 5.67 µM)
4 | 1.13 (≈ 2.78 µM) | 1 (≈ 2.45 µM) | 2 (≈ 4.91 µM) | 0.398 (≈ 0.977 µM) | 0.25 (≈ 0.613 µM) | 0.547 (≈ 1.34 µM) | 0.5 (≈ 1.23 µM) | 1 (≈ 2.45 µM) | 0.652 (≈ 1.6 µM) | 0.5 (≈ 1.23 µM) | 1 (≈ 2.45 µM) | 0.328 (≈ 0.805 µM) | 0.842 (≈ 2.07 µM) | 0.866 (≈ 2.12 µM) | 0.52 (≈ 1.28 µM) | 0.548 (≈ 1.34 µM) | 0.75 (≈ 1.84 µM) | 1 (≈ 2.45 µM) | 1 (≈ 2.45 µM) | 0.555 (≈ 1.36 µM) | CCCCCCCCCCCCCCCCOP(=O)([O-])OCC[N+](C)(C)C [MILTEFOSINE] | MIC90 [2]: 1 µg/mL (≈ 2.45 µM)
5 | 0.03 (≈ 0.103 µM) | 0.031 (≈ 0.106 µM) | 0.063 (≈ 0.216 µM) | 0.03 (≈ 0.103 µM) | – | 0.035 (≈ 0.12 µM) | 0.031 (≈ 0.106 µM) | 0.063 (≈ 0.216 µM) | 0.044 (≈ 0.151 µM) | 0.031 (≈ 0.106 µM) | 0.063 (≈ 0.216 µM) | 0.063 (≈ 0.216 µM) | 0.065 (≈ 0.223 µM) | 0.077 (≈ 0.264 µM) | 0.039 (≈ 0.134 µM) | 0.059 (≈ 0.202 µM) | 0.075 (≈ 0.257 µM) | 0.063 (≈ 0.216 µM) | 0.125 (≈ 0.429 µM) | 0.083 (≈ 0.285 µM) | CN(C/C=C/C#CC(C)(C)C)Cc1cccc2ccccc12 [TERBINAFINE] | –
